From BindingDB's records for doi:10.1124/mol.58.6.1511 (Albert Einstein College of Medicine, 2000) come the findings set out here.

For test [1], the target named is Solute carrier organic anion transporter family member 2A1 (Homo sapiens, UniProt Q92959).
Test [2] has as its target Prostaglandin F2-alpha receptor (Human, UniProt P43088).

Chain of Prostaglandin F2-alpha receptor (P43088 whole entry): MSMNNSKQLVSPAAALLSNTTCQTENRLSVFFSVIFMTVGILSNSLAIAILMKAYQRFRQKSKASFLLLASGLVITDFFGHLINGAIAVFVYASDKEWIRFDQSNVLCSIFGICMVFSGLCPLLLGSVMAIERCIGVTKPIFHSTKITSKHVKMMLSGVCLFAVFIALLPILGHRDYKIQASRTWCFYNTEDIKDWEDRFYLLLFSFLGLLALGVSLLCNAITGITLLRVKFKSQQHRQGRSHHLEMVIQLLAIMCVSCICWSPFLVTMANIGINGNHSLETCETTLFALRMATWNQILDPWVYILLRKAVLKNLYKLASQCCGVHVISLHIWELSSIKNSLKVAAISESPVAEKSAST

For `CCCCC[C@@H](O)/C=C/[C@@H]1[C@@H](C/C=C/CCCC(=O)NS(C)(=O)=O)[C@@H](O)C[C@H]1O` [AGN 191365], the Ki in test [1] was 0.307 µM; in test [2], over 10 µM.
In the case of `CCCCC[C@H](/C=C/[C@@H]1[C@@H](C/C=C/CCCC(N)=O)[C@@H](O)C[C@H]1O)OC` [AGN 192151], the Ki in test [1] and in test [2] was over 10 µM throughout.
For the molecule `CCCCC[C@@H](O)/C=C/[C@@H]1[C@@H](C/C=C/CCCC(N)=O)[C@@H](O)C[C@H]1O` [AGN 190911], the Ki in test [1] was 7.3 µM; in test [2] it was over 10 µM.
Take `CCCCCC(O)C=CC1C(O)CC(O)C1CC=CCCCC(=O)OC(C)C` (stereo not drawn) [PGF2 Alpha, 1-isopropyl ester]: the Ki in test [1] is 5 µM; in test [2], 3.2 µM.
Consider `CC(C)OC(=O)CCC/C=C\C[C@@H]1[C@@H](/C=C/[C@@H](O)CCc2ccccc2)[C@H](O)C[C@@H]1O` [CAS_130209-76-6], for which the figures for the Ki in test [1] and in test [2] were 0.168 µM and 0.018 µM, respectively.
For `CCCCC[C@@H](O)/C=C/[C@@H]1[C@@H](C/C=C/CCCS(=O)(=O)NC(C)=O)[C@@H](O)C[C@H]1O` [AGN 194394] the same measures were 0.034 µM and over 10 µM.
For `CCCCC[C@@H](O)/C=C/[C@@H]1[C@@H](C/C=C/CCCc2nnn[nH]2)[C@@H](O)C[C@H]1O` [AGN 191366], in that order: 0.071 µM and 8.13 µM.
As to `CCCCC[C@H](O)/C=C/C1[C@H](O)C[C@H](O)[C@@H]1C/C=C\CCCC(=O)O` (stereo partly drawn) [(Z)-7-[(1R,3R,5S)-3,5-Dihydroxy-2-((E)-(S)-3-hydroxy-oct-1-enyl)-cyclopentyl]-hept-5-enoic acid], in test [1], the Ki is 0.045 µM.
With `CCCCC[C@@H](O)/C=C/[C@@H]1[C@@H](C/C=C/CCCCN)[C@@H](O)C[C@H]1O` [AGN 191088], the Ki in test [1] and in test [2] was over 10 µM each time.
Turning to `CCCCC[C@H](/C=C/[C@@H]1[C@@H](C/C=C/CCCC(=O)O)[C@@H](O)C[C@H]1O)OC` [AGN 191995], the Ki in test [1] is over 10 µM; in test [2], 0.228 µM.

One may read the Ki as a dissociation constant, usually derived from enzyme kinetics or from competition with a known ligand. The low end stands for higher affinity, the high end for lower affinity.
